From PubChem BioAssay (NCI)
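1) Cells in 96-well plates. 2) Compound, 48 h, 5 concentrations. 3) Linear interpolation between surrounding doses. 4) Unreached endpoint = highest concentration. Abbreviation: GI50, concentration required for 50% inhibition of growth. TGI: concentration producing complete growth inhibition.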

Tests used:
Test in all cases: growth of human tumour cells (NCI), 48 h
T-47D breast = tested on: T-47D breast
CCRF-CEM leukemia = tested on: CCRF-CEM leukemia
TK-10 renal = tested on: TK-10 renal
SF-268 CNS = tested on: SF-268 CNS
MOLT-4 leukemia = tested on: MOLT-4 leukemia
MCF7 breast = tested on: MCF7 breast
EKVX NSCLC = tested on: EKVX NSCLC
MDA-N = tested on: MDA-N
SR leukemia = tested on: SR leukemia
HS 578T breast = tested on: HS 578T breast

Row | SMILES | TGI (T-47D breast) [µM] | TGI (CCRF-CEM leukemia) [µM] | TGI (TK-10 renal) [µM] | TGI (SF-268 CNS) [µM] | TGI (MOLT-4 leukemia) [µM] | TGI (MCF7 breast) [µM] | TGI (EKVX NSCLC) [µM] | TGI (MDA-N) [µM] | TGI (SR leukemia) [µM] | TGI (HS 578T breast) [µM] | GI50 (HS 578T breast) [µM] | GI50 (T-47D breast) [µM] | GI50 (CCRF-CEM leukemia) [µM] | GI50 (SR leukemia) [µM] | GI50 (TK-10 renal) [µM] | GI50 (SF-268 CNS) [µM] | GI50 (MOLT-4 leukemia) [µM] | GI50 (MCF7 breast) [µM] | GI50 (EKVX NSCLC) [µM]
1 | COc1ccc2c3c1OC1C(OC)(OC)CC4(C=C2)CN(C)CCC314 (stereo not given) | > 100 | > 100 | > 100 | > 100 | > 100 | > 100 | > 100 | > 100 | – | – | – | – | – | – | – | – | – | – | –
2 | CN1NC(c2ccccc2)=C(C#N)C(=O)CC1c1ccc(Br)cc1 (stereo not given) | – | – | > 100 | > 100 | – | – | – | – | > 100 | – | – | – | – | – | – | – | – | – | –
3 | C=CCN(CCN(CC=C)S(=O)(=O)c1ccc(C)cc1)S(=O)(=O)c1ccc(C)cc1 | > 100 | > 100 | > 100 | > 100 | > 100 | > 100 | – | > 100 | > 100 | > 100 | – | – | – | – | – | – | – | – | –
4 | CC[n+]1c(/C=C/c2ccc(N(CCCl)CCCl)cc2)ccc2cc(I)ccc21 | – | – | 9.04 | – | 3.03 | – | 12 | – | 2.42 | – | – | – | – | – | – | – | – | – | –
5 | Cc1ccc(/S(Cc2ccccc2)=N\S(=O)(=O)c2ccc(C)cc2)cc1 (stereo not given) | > 100 | > 100 | > 100 | > 100 | – | > 100 | > 100 | > 100 | > 100 | – | – | – | – | – | – | – | – | – | –
6 | O=C(NC1(C(=O)O)CCCC1)c1ccccc1 | > 100 | > 100 | > 100 | > 100 | > 100 | > 100 | > 100 | > 100 | – | > 100 | – | – | – | – | – | – | – | – | –
7 | OC12c3ccccc3C1CCCCCC21OCCCO1 (stereo not given) | – | > 100 | > 100 | > 100 | > 100 | – | – | – | – | – | – | – | – | – | – | – | – | – | –
8 | C=CCn1c(=N)/c(=C(\N)O)s/c1=C1/SC(=S)N(c2ccc(C)cc2)C1=O | – | > 100 | > 100 | > 100 | > 100 | – | – | – | > 100 | – | – | – | – | – | – | – | – | – | –
9 | COc1ccccc1C1C(C#N)=C(N)Oc2cc(O)ccc21 (stereo not given) | 76.3 | 29.1 | > 100 | 91 | 45.4 | 49.7 | > 100 | – | 21.1 | > 100 | 34.1 | 13.9 | 12 | 3.48 | 27.6 | 19.4 | 13.1 | 17.7 | 34.6
10 | CC(=O)NC1C(OCc2ccccc2)OC(CO)C(O)C1OCC(=O)N[C@@H](C)C(=O)N[C@H](CCC(=O)NCCNc1ccc([N+](=O)[O-])c2[nH]c3ccccc3c(=O)c12)C(N)=O (stereo not given in full) | > 100 | > 100 | 42.3 | – | – | – | 60.5 | > 100 | > 100 | > 100 | – | – | – | – | – | – | – | – | –
11 | CN(C)c1ccc(/C=C(\NC(=O)c2ccccc2)C(=O)NC(Cc2c[nH]c3ccccc23)C(=O)O)cc1 (stereo not given) | > 100 | > 100 | > 100 | > 100 | > 100 | > 100 | > 100 | > 100 | – | > 100 | – | – | – | – | – | – | – | – | –
12 | O=C(c1ccco1)N(C(=S)N1CCN(c2ccccn2)CC1)c1ccccc1 | – | > 100 | > 100 | > 100 | > 100 | – | – | – | > 100 | – | – | – | – | – | – | – | – | – | –
13 | [N-]=[N+]=Nc1ccc2c(c1)Sc1ccccc1N2CCCCN1CCN(C(=O)CCNC(=O)Cc2ccc(C(=O)c3ccccc3)cc2)CC1 | 28.7 | 8.26 | > 75.6 | 16 | 5.86 | 5.78 | > 100 | 14.1 | – | > 100 | – | – | – | – | – | – | – | – | –
14 | O=C(O)c1ccc(Nc2nc3nn(Cc4ccccc4)cc3c(=O)s2)cc1 | – | > 100 | > 100 | > 100 | > 100 | – | > 100 | – | > 100 | – | – | – | – | – | – | – | – | – | –
15 | O=C1/C(=C/c2ccccc2)CCCc2ccccc21 | – | 43.6 | 37.5 | 32.6 | 48.1 | 41.6 | 37.3 | 36.7 | 37.8 | 40.4 | – | – | – | – | – | – | – | – | –
16 | NS(=O)(=O)c1nnc(NS(=O)(=O)c2ccc([N+](=O)[O-])cc2)s1 | > 100 | – | > 100 | > 100 | > 100 | > 100 | > 100 | – | > 100 | – | – | – | – | – | – | – | – | – | –
17 | CCCCCCCCCC(=O)NC(Cc1ccc(O)cc1)C(=O)NCCCNCCCCNCCCNC(=O)[C@@H](N)CCCN=C(N)N (stereo not given in full) | – | > 100 | > 100 | > 100 | > 100 | – | > 100 | – | > 100 | – | – | – | – | – | – | – | – | – | –
18 | CCOC(=O)C1(C(=O)OCC)C=C(c2ccccc2)N(C2OC(COC(C)=O)C(OC(C)=O)C(OC(C)=O)C2OC(C)=O)C1=S (stereo not given) | > 100 | > 100 | – | > 100 | > 100 | > 100 | > 100 | > 100 | > 100 | > 100 | – | – | – | – | – | – | – | – | –
19 | Cc1cc(C)nc(NS(=O)(=O)c2ccc(NC(=O)c3cc([N+](=O)[O-])cc([N+](=O)[O-])c3)cc2)n1 | > 100 | > 100 | > 100 | > 100 | 13.5 | > 100 | – | > 100 | 14.7 | > 100 | – | – | – | – | – | – | – | – | –
20 | C/C(O)=C(\C=NC(=S)c1ccncc1)C(=O)Nc1ccccc1C | > 100 | – | > 100 | > 100 | – | > 100 | > 100 | > 100 | – | – | – | – | – | – | – | – | – | – | –
21 | O=c1[nH]c(=O)n([C@@H]2O[C@H](CO)[C@@H](O)[C@@H]2F)cc1I | > 100 | 66.8 | > 100 | > 100 | > 100 | > 100 | > 100 | > 100 | – | > 100 | – | – | – | – | – | – | – | – | –
22 | OC12CCC3(O)c4ccccc4C3C1c1ccccc12 (stereo not given) | – | > 100 | > 100 | > 100 | > 100 | – | > 100 | – | > 100 | – | – | – | – | – | – | – | – | – | –
23 | COC(=O)[C@H](Cc1c[nH]c2ccccc12)NC(=O)c1ccccc1I | 76.2 | – | 77.3 | 47 | 56.9 | > 100 | > 100 | 42.6 | 58.7 | 29.8 | – | – | – | – | – | – | – | – | –
24 | NC(N)=N/N=C/c1c(-c2cc([N+](=O)[O-])c(Cl)cc2Cl)nc2n1CCS2 | – | > 100 | 45.9 | > 100 | 58.6 | – | > 100 | – | 3.43 | > 100 | – | – | – | – | – | – | – | – | –
25 | COc1cc(OC)c(OC)cc1/C=C/c1cc[n+](C)c2ccccc12 | > 100 | 80.9 | > 100 | > 100 | > 100 | > 100 | > 100 | > 100 | > 100 | – | – | – | – | – | – | – | – | – | –
